# Data as given in BindingDB's records for doi:10.1021/jm9600611 (Cytel, 1996).
# Assay: Compound was tested for the inhibition of E-selectin-mediated cellular adhesion
row,IC50,Compound
1,80 µM,"CCO[C@@H]1O[C@@H](CO)[C@H](O)[C@H](O[C@@H]2O[C@@H](CO)[C@@H](O[C@@H]3O[C@@H](CO)[C@H](O)[C@H](O[C@]4(C(=O)O)C[C@@H](O)[C@@H](NC(C)=O)[C@H]([C@H](O)[C@H](O)CO)O4)[C@@H]3O)[C@H](O[C@@H]3O[C@@H](C)[C@@H](O)[C@H](O)[C@@H]3O)[C@@H]2NC(=O)c2ccc3ccccc3c2)[C@@H]1O [Ethyl(Sodium 5-actamido-3,5-dideoxy-alpha-D-glycero-D-galacto-nonulopyronosylonate)-(2,3)-O-(beta-D-galactopyranosyl)-(1,4)-O(alpha-L-fucopyranosyl)-(1,3)-O-[2-(2-naphthamido)-2-deoxy-beta-D-glucopyranosyl]-(1,3)-O-beta-D-galactopyranoside]"
2,2900 µM,"CCO[C@@H]1O[C@@H](CO)[C@H](O)[C@H](O[C@@H]2O[C@@H](CO)[C@@H](O[C@@H]3O[C@@H](CO)[C@H](O)[C@H](O[C@]4(C(=O)O)C[C@@H](O)[C@@H](NC(C)=O)[C@H]([C@H](O)[C@H](O)CO)O4)[C@@H]3O)[C@H](O[C@@H]3O[C@@H](C)[C@@H](O)[C@H](O)[C@@H]3O)[C@@H]2NC(=O)C2CCCCC2)[C@@H]1O [Ethyl(Sodium 5-actamido-3,5-dideoxy-alpha-D-glycero-D-galacto-nonulopyronosylonate)-(2,3)-O-(beta-D-galactopyranosyl)-(1,4)-O(alpha-L-fucopyranosyl)-(1,3)-O-[2-(Cyclohexanecarboxylic acid amido)-2-deoxy-beta-D-glucopyranosyl]-(1,3)-O-beta-D-galactopyranoside]"
3,1000 µM,"CCO[C@@H]1O[C@@H](CO)[C@H](O)[C@H](O[C@@H]2O[C@@H](CO)[C@@H](O[C@@H]3O[C@@H](CO)[C@H](O)[C@H](O[C@]4(C(=O)O)C[C@@H](O)[C@@H](NC(C)=O)[C@H]([C@H](O)[C@H](O)CO)O4)[C@@H]3O)[C@H](O[C@@H]3O[C@@H](C)[C@@H](O)[C@H](O)[C@@H]3O)[C@@H]2NC(C)=O)[C@@H]1O [Ethyl(Sodium 5-actamido-3,5-dideoxy-alpha-D-glycero-D-galacto-nonulopyronosylonate)-(2,3)-O-(beta-D-galactopyranosyl)-(1,4)-O(alpha-L-fucopyranosyl)-(1,3)-O-[2-(N-acetylamido)-2-deoxy-beta-D-glucopyranosyl]-(1,3)-O-beta-D-galactopyranoside(N-acetyl SLex)]"
4,300 µM,"CCO[C@@H]1O[C@@H](CO)[C@H](O)[C@H](O[C@@H]2O[C@@H](CO)[C@@H](O[C@@H]3O[C@@H](CO)[C@H](O)[C@H](O[C@]4(C(=O)O)C[C@@H](O)[C@@H](NC(C)=O)[C@H]([C@H](O)[C@H](O)CO)O4)[C@@H]3O)[C@H](O[C@@H]3O[C@@H](C)[C@@H](O)[C@H](O)[C@@H]3O)[C@@H]2NC(=O)c2ccccc2)[C@@H]1O [Ethyl(Sodium 5-actamido-3,5-dideoxy-alpha-D-glycero-D-galacto-nonulopyronosylonate)-(2,3)-O-(beta-D-galactopyranosyl)-(1,4)-O(alpha-L-fucopyranosyl)-(1,3)-O-[2-(benzamido)-2-deoxy-beta-D-glucopyranosyl]-(1,3)-O-beta-D-galactopyranoside]"
